Experimental data reported in patent US4892883A, “Pharmaceutical compositions containing bilobalide for the treatment of neuropathies Ai” (Willman - Schwabe GmbH & Co., priority 1973, dated 1990).
Like-named read-outs stand apart in the source and are kept apart here.

Columns and labels:
[1] = system: spontaneous climbing behaviour (SCB) of mice; test: Spontaneous climbing behaviour (SCB) of mice (Table X); type: in vivo, mouse (NMRI); details: for influence of antagonists on the SCB activity of extract and Physostigmine: Scopolamine, Sulpiride, Naloxone, other receptor antagonists; for Mean climbing score, animal: M ± SD
Experimental: In one of these experiments the influence of the extract on the spontaneous climbing behaviour (SCB) was examined according to the method described by Marcais et al. (Psychopharmacology; 56, 233-234, 1978).
*The substances were applied 20 min before the observation period (30
min). In the combination experiments, the second substance was
administered 5 min before the first substance.

[2] = system: Oxotremorine induced hypothermia, tremor and salivation in mice; test: Oxotremorine induced hypothermia, tremor and salivation (Table XIII); type: in vivo, mouse (NMRI); details: for Hypothermia: M ± SD
Experimental: (§1) The analgesia tests were carried out according to the hotplate test (J. Pharm. Pharmacol., 9, 381, 1957) and the tests for hypothermia, tremor and salivation according to the method described by Gouret (J. Pharmacol., 4, 105-128, 1973). Subsequently, the mice were treated with extract and Physostigmine etc., in a manner similar to the method described above in connection with the hypoxia tests.

mice [3] = test: Influence on anti-hypoxic effects of Pilocarpine and Physostigmine (Table XI); type: in vivo, mouse (NMRI); details: for Survival time, treated animals: M ± SEM
Experimental: The protective actions of the extract against hypoxia were compared in a Hypobare-Hypoxia model, according to a method described by Nakanishi et al (Life Sci 13, 467-478, 1973). 4 mice (2 control animals and 2 treated animals) were put into a vacuum desiccator (3.51). A negative pressure of 170 mmHg was generated therein within 20 sec. The survival times of the animals under these hypoxia conditions were determined. The test substance was administered intraperitoneally in an aqueous solution 30 min before the experiment began. The control animals were only treated with solvents. The maximum observation period of the survival times was 8 min. The survival time of the treated animals tolerating the hypoxia condition longer than this period was assumed to be 480 sec. None of the control animals survived longer than 180 sec. The percentage of the treated animals surviving longer than 3 min was defined as %-effect of the extract.
The anti-hypoxic effects of the cholinomimetics Pilocarpine and the acetylcholine-esterase inhibitor Physostigmine entering the brain are known. […] The method applied for these experiments was similar to the above-described Hypobare-Hypoxia model. Groups of mice were treated orally with an aqueous suspension of the extract (or with water). Pilocarpine and Physostigmine, respectively (or water) were administered 30 min later. The hypoxia tests were carried out 30 min after the second application.

mice [4] = test: Analgetic effect, hotplate test (Table XII); type: in vivo, mouse (NMRI); details: for Latent period: M ± SD
Experimental: as §1
A The percentage of animals having a latent period of more than 60 sec.

brain and nerves [5] = details: brain of many species, including humans; cited from earlier work
brain and nerves [6] = details: brain of various species; cited from earlier work
[7] = Test 1, Physostigmine 0.1 mg/kg s.c.
[8] = Test 1, Physostigmine 0.2 mg/kg s.c.

Q: For `C=CCN1CC[C@]23c4c5ccc(O)c4O[C@H]2C(=O)CC[C@@]3(O)[C@H]1C5` [Naloxone], which “influence of antagonists on the SCB activity of extract and Physostigmine” value (from here on “influence of antagonists”) [1] is on record?
A: do not influence the effects of Physostigmine and the extract

Q: What does the source list for `O=C1CCCN1CC#CCN1CCCC1` [Oxotremorine]?
A: Salivation ([2]; Oxotremorine 0.1 mg/kg i.p.): 60%; Tremor ([2]; Oxotremorine 0.1 mg/kg i.p.): 0%; Hypothermia ([2]; Oxotremorine 0.1 mg/kg i.p.): 2.5 ± 0.82 °C; Salivation ([2]; Oxotremorine 0.2 mg/kg i.p.): 100%; Tremor ([2]; Oxotremorine 0.2 mg/kg i.p.): 50%; Hypothermia ([2]; Oxotremorine 0.2 mg/kg i.p.): 5.23 ± 1.19 °C

Q: For `CNC(=O)Oc1ccc2c(c1)[C@]1(C)CCN(C)[C@@H]1N2C` [Physostigmine], which “influence of antagonists” value [1] is on record?
A: inhibited only by specific anti-cholinergic agents entering the brain, such as Scopolamine and not influenced by antagonists to other receptors

Q: And the “Mean climbing score, animal” value ([1]; Test II, 0.10 mg/kg s.c.)?
A: 1.39 ± 0.92

Q: And the “Mean climbing score, animal” value ([1]; Test III, 0.025 mg/kg s.c.)?
A: 5.75 ± 1.28

Q: What about the “Mean climbing score, animal” value ([1]; Test III, 0.05 mg/kg s.c.) of the same compound?
A: 3.88 ± 2.23

Q: What about the “influence on SCB of mice” value ([1]; words) of the same compound?
A: reduces the SCB of mice

Q: What about the “% effect” value (mice [3]; Physostigmine 0.2 mg/kg i.p.) of the same compound?
A: 20%

Q: And the “Survival time, treated animals” value (mice [3]; Physostigmine 0.2 mg/kg i.p., control 80.6 ± 9.64)?
A: 190.63 ± 26.2 s

Q: And the “% effect (animals with latent period of more than 60 sec)” value (mice [4]; [7])?
A: 10%

Q: What about the Latent period (mice [4]; [7]) of the same compound?
A: 31.1 ± 13.9 s

Q: What about the “% effect (animals with latent period of more than 60 sec)” value (mice [4]; [8]) of the same compound?
A: 50%

Q: What about the Latent period (mice [4]; [8]) of the same compound?
A: 44.1 ± 17.69 s

Q: For `CC[C@@H]1C(=O)OC[C@@H]1Cc1cncn1C` [Pilocarpine], which “% effect” value (mice [3]; Pilocarpine 2 mg/kg i.p.) is on record?
A: 30%

Q: What about the “Survival time, treated animals” value (mice [3]; Pilocarpine 2 mg/kg i.p., control 86.7 ± 6.82) of the same compound?
A: 178.6 ± 24.8 s

Q: What about the “% effect (animals with latent period of more than 60 sec)” value (mice [4]; Test 2, Pilocarpine 5 mg/kg s.c.) of the same compound?
A: 10%

Q: What about the Latent period (mice [4]; Test 2, Pilocarpine 5 mg/kg s.c., control 15.74 ± 3.47) of the same compound?
A: 24.9 ± 13.32 s

Q: For `CN1[C@@H]2C[C@@H](OC(=O)[C@H](CO)c3ccccc3)C[C@H]1[C@@H]1O[C@@H]12` [Scopolamine], which “Mean climbing score, animal” value ([1]; Test II, 0.25 mg/kg i.p.) is on record?
A: 6.63 ± 1.42

Q: For `CCN1CCCC1CNC(=O)c1cc(S(N)(=O)=O)ccc1OC` (centres unmarked) [Sulpiride], which “influence of antagonists” value [1] is on record?
A: do not influence the effects of Physostigmine and the extract

Q: For `Oc1c(Cl)cc(Cl)c(Cl)c1Cc1c(O)c(Cl)cc(Cl)c1Cl` [hexachlorophene, 2,2'-methylene-bis(3,4,6-trichlorophenol)], which neurotoxic effect (brain and nerves [5]) is on record?
A: produces oedematous damage in the brain of many species, including humans

Q: For `C[CH2][Sn]([Cl])([CH2]C)[CH2]C` [triethyltin chloride], which neurotoxic effect (brain and nerves [6]) is on record?
A: brings about an increase in the water content in the brain of various species and induces specific myelopathy in the nerves
